In article PMC7377239, “Cardiovascular Effects of Polychlorinated Biphenyls and Their Major Metabolites” (Environmental Health Perspectives, 2020):
Where a name gives a salt, the structure may show the parent alone. Read-outs that look alike come from different tables or passages of the source.

Test system: iCell cardiomyocytes (human iPSC-derived cardiomyocytes)
Assay: High-content imaging of cytotoxicity and mitochondrial integrity in iPSC-CMs
Type: cell-based
Conditions: Homo sapiens; for viability at 0.01 µM / activity at 0.01 µM / viability at 0.1 µM / activity at 0.1 µM / viability at 1 µM / activity at 1 µM / viability at 10 µM / activity at 10 µM / viability at 100 µM / activity at 100 µM: Cardiomyocyte, 0.00 µM = 100.00; for viability at 0.1 µM / activity at 0.1 µM: 0.10 µM; for minimal effective concentration: iPSC-CM
How it was run: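 Readouts from high-content images were normalized to vehicle controls containing 0.5% vol/vol DMSO. They were fit to a four-parameter logistic model in R. Points of departure were set using a cutoff of one standard deviation across vehicle control means. Where no concentration–response was seen, the top tested concentration of 100μM was assigned as the no observable adverse effect level.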

[1] = 1.5 h, read-out: cm.cam.90min POD
[2] = 1.5 h, read-out: cm.mii.90min POD
[3] = 1.5 h, read-out: cm.mito.90min POD
[4] = 1.5 h, read-out: cm.tc.90min POD
[5] = 24 h, read-out: cm.cam.24hrs POD
[6] = 24 h, read-out: cm.mii.24hrs POD
[7] = 24 h, read-out: cm.mito.24hrs POD
[8] = 24 h, read-out: cm.tc.24hrs POD

Compound `Clc1ccc(-c2ccccc2)cc1` [PCB3] has a viability at 0.01 µM (1.5 h, read-out: cm.cam.90min) of 104%, an activity at 0.01 µM (1.5 h, read-out: cm.mii.90min) of 107% and an activity at 0.01 µM (1.5 h, read-out: cm.mito.90min) of 104%. For the same compound, the viability at 0.01 µM (1.5 h, read-out: cm.tc.90min) was 104%, the viability at 0.1 µM (1.5 h, read-out: cm.cam.90min) was 97.8% and the activity at 0.1 µM (1.5 h, read-out: cm.mii.90min) was 103%. For the same compound, the activity at 0.1 µM (1.5 h, read-out: cm.mito.90min) was 97.7%, the viability at 0.1 µM (1.5 h, read-out: cm.tc.90min) was 97.7% and the viability at 1 µM (1.5 h, read-out: cm.cam.90min) was 98.5%. It also gave an activity at 1 µM (1.5 h, read-out: cm.mii.90min) of 104%, an activity at 1 µM (1.5 h, read-out: cm.mito.90min) of 98.3% and a viability at 1 µM (1.5 h, read-out: cm.tc.90min) of 98.2%. For the same compound, the viability at 10 µM (1.5 h, read-out: cm.cam.90min) was 99.9%, the activity at 10 µM (1.5 h, read-out: cm.mii.90min) was 109% and the activity at 10 µM (1.5 h, read-out: cm.mito.90min) was 99.6%. The viability at 10 µM (1.5 h, read-out: cm.tc.90min) was 99.5%, the viability at 100 µM (1.5 h, read-out: cm.cam.90min) was 40.3% and the activity at 100 µM (1.5 h, read-out: cm.mii.90min) was 141%. For the same compound, the activity at 100 µM (1.5 h, read-out: cm.mito.90min) was 39.3%, the viability at 100 µM (1.5 h, read-out: cm.tc.90min) was 40.4% and the viability at 0.01 µM (24 h, read-out: cm.cam.24hrs) was 87.6%. The activity at 0.01 µM (24 h, read-out: cm.mii.24hrs) was 109%, the activity at 0.01 µM (24 h, read-out: cm.mito.24hrs) was 84.7% and the viability at 0.01 µM (24 h, read-out: cm.tc.24hrs) was 87.2%. It also gave a viability at 0.1 µM (24 h, read-out: cm.cam.24hrs) of 96%, an activity at 0.1 µM (24 h, read-out: cm.mii.24hrs) of 101% and an activity at 0.1 µM (24 h, read-out: cm.mito.24hrs) of 93.1%. The viability at 0.1 µM (24 h, read-out: cm.tc.24hrs) was 95.9%, the viability at 1 µM (24 h, read-out: cm.cam.24hrs) was 95.4% and the activity at 1 µM (24 h, read-out: cm.mii.24hrs) was 97.1%. The activity at 1 µM (24 h, read-out: cm.mito.24hrs) was 91%, the viability at 1 µM (24 h, read-out: cm.tc.24hrs) was 95.3% and the viability at 10 µM (24 h, read-out: cm.cam.24hrs) was 91.4%. For the same compound, the activity at 10 µM (24 h, read-out: cm.mii.24hrs) was 87.2%, the activity at 10 µM (24 h, read-out: cm.mito.24hrs) was 87.8% and the viability at 10 µM (24 h, read-out: cm.tc.24hrs) was 90.8%. It also gave a viability at 100 µM (24 h, read-out: cm.cam.24hrs) of 1.51%, an activity at 100 µM (24 h, read-out: cm.mii.24hrs) of 32% and an activity at 100 µM (24 h, read-out: cm.mito.24hrs) of 0.72%. For the same compound, the viability at 100 µM (24 h, read-out: cm.tc.24hrs) was 1.49%, the minimal effective concentration [1] was 24.9 µM and the minimal effective concentration [2] was 6.86 µM. For the same compound, the minimal effective concentration [3] was 21.2 µM, the minimal effective concentration [4] was 20 µM and the minimal effective concentration [5] was 7.4 µM. The minimal effective concentration [6] was 10.9 µM, the minimal effective concentration [7] was 6.67 µM and the minimal effective concentration [8] was 6.97 µM.
Compound `O=S(=O)(O)Oc1cccc(-c2ccc(Cl)cc2)c1` [3'-yl PCB 3 sulfate] has a viability at 0.01 µM (1.5 h, read-out: cm.cam.90min) of 99.5%, an activity at 0.01 µM (1.5 h, read-out: cm.mii.90min) of 98.4% and an activity at 0.01 µM (1.5 h, read-out: cm.mito.90min) of 99.8%. It also gave a viability at 0.01 µM (1.5 h, read-out: cm.tc.90min) of 99.9%, a viability at 0.1 µM (1.5 h, read-out: cm.cam.90min) of 98.2% and an activity at 0.1 µM (1.5 h, read-out: cm.mii.90min) of 97.1%. It also gave an activity at 0.1 µM (1.5 h, read-out: cm.mito.90min) of 98.3%, a viability at 0.1 µM (1.5 h, read-out: cm.tc.90min) of 98.4% and a viability at 1 µM (1.5 h, read-out: cm.cam.90min) of 102%. The activity at 1 µM (1.5 h, read-out: cm.mii.90min) was 99.8%, the activity at 1 µM (1.5 h, read-out: cm.mito.90min) was 102% and the viability at 1 µM (1.5 h, read-out: cm.tc.90min) was 102%. The viability at 10 µM (1.5 h, read-out: cm.cam.90min) was 95.4%, the activity at 10 µM (1.5 h, read-out: cm.mii.90min) was 104% and the activity at 10 µM (1.5 h, read-out: cm.mito.90min) was 95.4%. It also gave a viability at 10 µM (1.5 h, read-out: cm.tc.90min) of 95.3%, a viability at 100 µM (1.5 h, read-out: cm.cam.90min) of 99% and an activity at 100 µM (1.5 h, read-out: cm.mii.90min) of 91.3%. It also gave an activity at 100 µM (1.5 h, read-out: cm.mito.90min) of 99.3%, a viability at 100 µM (1.5 h, read-out: cm.tc.90min) of 99.3% and a viability at 0.01 µM (24 h, read-out: cm.cam.24hrs) of 97.1%. It also gave an activity at 0.01 µM (24 h, read-out: cm.mii.24hrs) of 93.8%, an activity at 0.01 µM (24 h, read-out: cm.mito.24hrs) of 95.4% and a viability at 0.01 µM (24 h, read-out: cm.tc.24hrs) of 98%. The viability at 0.1 µM (24 h, read-out: cm.cam.24hrs) was 105%, the activity at 0.1 µM (24 h, read-out: cm.mii.24hrs) was 89.9% and the activity at 0.1 µM (24 h, read-out: cm.mito.24hrs) was 105%. It also gave a viability at 0.1 µM (24 h, read-out: cm.tc.24hrs) of 105%, a viability at 1 µM (24 h, read-out: cm.cam.24hrs) of 101% and an activity at 1 µM (24 h, read-out: cm.mii.24hrs) of 100%. It also gave an activity at 1 µM (24 h, read-out: cm.mito.24hrs) of 99.9%, a viability at 1 µM (24 h, read-out: cm.tc.24hrs) of 102% and a viability at 10 µM (24 h, read-out: cm.cam.24hrs) of 103%. The activity at 10 µM (24 h, read-out: cm.mii.24hrs) was 79.2%, the activity at 10 µM (24 h, read-out: cm.mito.24hrs) was 104% and the viability at 10 µM (24 h, read-out: cm.tc.24hrs) was 103%. The viability at 100 µM (24 h, read-out: cm.cam.24hrs) was 97%, the activity at 100 µM (24 h, read-out: cm.mii.24hrs) was 88.7% and the activity at 100 µM (24 h, read-out: cm.mito.24hrs) was 97.8%. It also gave a viability at 100 µM (24 h, read-out: cm.tc.24hrs) of 97.2%, a minimal effective concentration [1] of 100 µM and a minimal effective concentration [2] of 89.9 µM. It also gave a minimal effective concentration [3] of 100 µM, a minimal effective concentration [4] of 100 µM and a minimal effective concentration [5] of 100 µM. For the same compound, the minimal effective concentration [6] was 100 µM, the minimal effective concentration [7] was 100 µM and the minimal effective concentration [8] was 100 µM.
In the case of `Oc1ccccc1-c1ccc(Cl)cc1` [2'-OH PCB3], the viability at 0.01 µM (1.5 h, read-out: cm.cam.90min) is reported as 104%, the activity at 0.01 µM (1.5 h, read-out: cm.mii.90min) is reported as 111% and the activity at 0.01 µM (1.5 h, read-out: cm.mito.90min) is reported as 104%. It also gave a viability at 0.01 µM (1.5 h, read-out: cm.tc.90min) of 104%, a viability at 0.1 µM (1.5 h, read-out: cm.cam.90min) of 95.6% and an activity at 0.1 µM (1.5 h, read-out: cm.mii.90min) of 113%. The activity at 0.1 µM (1.5 h, read-out: cm.mito.90min) was 95.6%, the viability at 0.1 µM (1.5 h, read-out: cm.tc.90min) was 95.6% and the viability at 1 µM (1.5 h, read-out: cm.cam.90min) was 101%. The activity at 1 µM (1.5 h, read-out: cm.mii.90min) was 101%, the activity at 1 µM (1.5 h, read-out: cm.mito.90min) was 101% and the viability at 1 µM (1.5 h, read-out: cm.tc.90min) was 101%. The viability at 10 µM (1.5 h, read-out: cm.cam.90min) was 102%, the activity at 10 µM (1.5 h, read-out: cm.mii.90min) was 92.5% and the activity at 10 µM (1.5 h, read-out: cm.mito.90min) was 102%. For the same compound, the viability at 10 µM (1.5 h, read-out: cm.tc.90min) was 102%, the viability at 100 µM (1.5 h, read-out: cm.cam.90min) was 0% and the activity at 100 µM (1.5 h, read-out: cm.mii.90min) was 32.7%. For the same compound, the activity at 100 µM (1.5 h, read-out: cm.mito.90min) was 0.07%, the viability at 100 µM (1.5 h, read-out: cm.tc.90min) was 0.07% and the viability at 0.01 µM (24 h, read-out: cm.cam.24hrs) was 95.1%. The activity at 0.01 µM (24 h, read-out: cm.mii.24hrs) was 98.5%, the activity at 0.01 µM (24 h, read-out: cm.mito.24hrs) was 92.6% and the viability at 0.01 µM (24 h, read-out: cm.tc.24hrs) was 94.5%. For the same compound, the viability at 0.1 µM (24 h, read-out: cm.cam.24hrs) was 94.5%, the activity at 0.1 µM (24 h, read-out: cm.mii.24hrs) was 96% and the activity at 0.1 µM (24 h, read-out: cm.mito.24hrs) was 91.2%. The viability at 0.1 µM (24 h, read-out: cm.tc.24hrs) was 94.3%, the viability at 1 µM (24 h, read-out: cm.cam.24hrs) was 99.7% and the activity at 1 µM (24 h, read-out: cm.mii.24hrs) was 98.3%. The activity at 1 µM (24 h, read-out: cm.mito.24hrs) was 96.7%, the viability at 1 µM (24 h, read-out: cm.tc.24hrs) was 99.8% and the viability at 10 µM (24 h, read-out: cm.cam.24hrs) was 103%. The activity at 10 µM (24 h, read-out: cm.mii.24hrs) was 74.7%, the activity at 10 µM (24 h, read-out: cm.mito.24hrs) was 104% and the viability at 10 µM (24 h, read-out: cm.tc.24hrs) was 103%. For the same compound, the viability at 100 µM (24 h, read-out: cm.cam.24hrs) was 0%, the activity at 100 µM (24 h, read-out: cm.mii.24hrs) was 0% and the activity at 100 µM (24 h, read-out: cm.mito.24hrs) was 0%. For the same compound, the viability at 100 µM (24 h, read-out: cm.tc.24hrs) was 0%, the minimal effective concentration [1] was 32.8 µM and the minimal effective concentration [2] was 9.15 µM. The minimal effective concentration [3] was 41.4 µM, the minimal effective concentration [4] was 34.5 µM and the minimal effective concentration [5] was 40.4 µM. It also gave a minimal effective concentration [6] of 6.56 µM, a minimal effective concentration [7] of 29.8 µM and a minimal effective concentration [8] of 35.9 µM.
